Test results: patent US12103904B2, “Benzoylglycine derivatives and methods of making and using same” (Duke University, priority 2016, dated 2024)
Converted amounts (≈) assume the structure as drawn.

What was measured:
N. gonorrhoeae 35/02 = assay: Minimum Inhibitory Concentration (MIC) on GCB plates; type: cell-based, Neisseria gonorrhoeae; conditions: cephalosporin-intermediate resistant strain 35/02
Procedure: (§1) Non-piliated variants of the indicated strains of Neisseria gonorrhoeae were grown overnight on GCB plates, resuspended in GCB broth with Kellogg's supplements I and II (Kellogg et al. (1963) Neisseria gonorrhoeae. I. Virulence genetically linked to colonial variation. J Bacteriol 85, 1274-1279), 10 mM MgCl2, and 20 mM sodium bicarbonate at a final OD600 of 0.018 (˜1×10^7 cfu/ml). Aliquots (5 μl) of each strain was spotted onto GCB plates containing the compounds at 2-fold dilution intervals. The MIC was defined as the lowest concentration of antibiotic on which fewer than 5 colonies appeared after 24 hrs of incubation.
(§2) FA19 is an antibiotic-susceptible strain (Maness, M. J., and Sparling, P. F. (1973) Multiple antibiotic resistance due to a single mutation in Neisseria gonorrhoeae. J Infect Dis 128, 321-330). 35/02 is a cephalosporin-intermediate resistant strain of N. gonorrhoeae isolated in Sweden in 2002 (Lindberg et al. (2007) Neisseria gonorrhoeae isolates with reduced susceptibility to cefixime and ceftriaxone: association with genetic polymorphisms in penA, mtrR, porB1b, and ponA. Antimicrob Agents Chemother 51, 2117-2122). This strain contains a mosaic penA gene (encoding variants of Penicillin-Binding Protein 2) associated with cephalosporin resistance, but the strain is not fully resistant. […] Lastly, F89 has an MIC of ceftriaxone=2 μg/ml (Unemo et al. (2011) High-level cefixime- and ceftriaxone-resistant N. gonorrhoeae in France: novel penA mosaic allele in a successful international clone causes treatment failure. Antimicrob Agents Chemother 56, 1273-1280).
(§3) “MIC50” refers to an amount, concentration or dosage of a particular test compound that achieves a 50% inhibition of a growth of a target organism. […] Representative results are also illustrated in Table 1.

N. gonorrhoeae F89 [1] = assay: as above; type: cell-based, Neisseria gonorrhoeae; conditions: ceftriaxone-resistant strain F89
Procedure: as §1, §2, §3

N. gonorrhoeae FA19 = assay: as above; type: cell-based, Neisseria gonorrhoeae; conditions: antibiotic-susceptible strain FA19
Procedure: as §1, §2, §3

N. gonorrhoeae HO41 [2] = assay: as above; type: cell-based, Neisseria gonorrhoeae; conditions: ceftriaxone-resistant strain HO41
Procedure: as §1, §2, §3

[3] = test system: multidrug-resistant H041 N. gonorrhoeae; assay: murine gonococcal infection model (in vivo clearance); parameters: species or system mice
Source text: FIG. 2 illustrates in vivo efficacy of Example 3 in the murine gonococcal infection model. (A) efficacy of Example 3 administered intraperitoneally. […] (B) efficacy of Example 3 administrated orally. Mice were infected with multidrug-resistant H041 N. gonorrhoeae via an established protocol.
Female Mouse Model of Infection: Female BALB/c mice (Charles River Laboratories, NCI Frederick strain of inbred BALB/cAnNCr mice, strain code 555) were allowed to acclimate to the USU animal facility in autoclaved cages and bedding and with autoclaved water and chow for 10 days. After the acclimation period and […] to bacterial inoculation (day −4), vaginal smears were stained with a modified Wright's stain (Hem3, Fisher HealthCare Protocol) and examined to identify mice in anestrus or in the diestrus stage of the estrous cycle. […] On day −2, mice were inoculated vaginally with 20 μl of strain H041 rpsL suspended in PBS; suspensions were passed through a […] filter to remove aggregates and adjusted to the absorbance A600 reading at 600 nm (A600) that was predicted to be 5×10^5 CFU/ml, which is the concentration needed to inoculate mice with the number of viable gonococci needed to infect 80% of mice (infectious dose 80; ID80). […]
Vaginal swabs were quantitatively cultured for Gc on days −1 and 0 following vaginal inoculation to confirm infection prior to treatment. […]

B. cepacia = assay: MIC against clinical strains; type: cell-based; conditions: Burkholderia cepacia; B. cepacia clinical strains (n = 5)
Procedure: (§4) The antibiotic activities of the compounds useful in the methods of the disclosure are evaluated by measurements of minimum inhibitory concentrations (MICs) using E. coli, P. aeruginosa, K. pneumoniae and B. cepacia.

E. coli = assay: MIC against clinical strains; type: cell-based; conditions: Escherichia coli; E. coli clinical strains (n = 10)
Procedure: as §4

K. pneumoniae = assay: MIC against clinical strains; type: cell-based; conditions: Klebsiella pneumoniae; K. pneumoniae clinical strains (n = 10)
Procedure: as §4

P. aeruginosa = assay: MIC against clinical strains; type: cell-based; conditions: Pseudomonas aeruginosa; P. aeruginosa clinical strains (n = 10)
Procedure: as §4

E. coli strain O18:H7:K1 = assay: murine E. coli intraperitoneal sepsis model; type: in vivo; conditions: mice infected with E. coli O18:H7:K1, single dose
Source text: FIG. 3 illustrates in vivo efficacy of Example 4 in the murine E. coli sepsis model. (A) dose response curves of Example 4 in a murine intraperitoneal sepsis model. Mice were infected with the E. coli strain O18:H7:K1.

N. gonorrhoeae F89 [4] = conditions: literature value (Unemo et al. 2011); cited from earlier work
N. gonorrhoeae HO41 [5] = conditions: literature value (Ohnishi et al. 2011); cited from earlier work

C[C@@](O)(C(F)F)[C@H](NCCCc1ccc(-c2ccccc2)cc1)C(=O)NO
MIC N. gonorrhoeae 35/02 (N. gonorrhoeae 35/02): 0.03 | MIC N. gonorrhoeae F89 (N. gonorrhoeae F89 [1]): 0.03 | MIC N. gonorrhoeae FA19 (N. gonorrhoeae FA19): 0.02 | MIC N. gonorrhoeae HO41 (N. gonorrhoeae HO41 [2]): 0.03

C[C@@](O)(C(F)F)[C@H](NC(=O)c1ccc(-c2ccccc2)cc1)C(=O)NO [Example 2, N-((2S,3S)-4,4-difluoro-3-hydroxy-1-(hydroxyamino)-3-methyl-1-oxobutan-2-yl)-[1,1′-biphenyl]-4-carboxamide]
MIC N. gonorrhoeae 35/02 (N. gonorrhoeae 35/02): 0.02 | MIC N. gonorrhoeae F89 (N. gonorrhoeae F89 [1]): 0.007 | MIC N. gonorrhoeae FA19 (N. gonorrhoeae FA19): 0.002 | MIC N. gonorrhoeae HO41 (N. gonorrhoeae HO41 [2]): 0.004

CC(C)(C)C(=O)ONC(=O)[C@@H](NC(=O)c1ccc(-c2ccccc2)cc1)[C@](C)(O)C(F)F [Example 3, N-((2S,3S)-4,4-difluoro-3-hydroxy-3-methyl-1-oxo-1-((pivaloyloxy)amino)butan-2-yl)-[1,1′-biphenyl]-4-carboxamide]
in vivo efficacy, administered orally ([3]; female BALB/c mice, vaginal infection with H041 rpsL, oral, four consecutive days): exhibited in vivo efficacy | in vivo efficacy, administered intraperitoneally ([3]; mice infected with H041 N. gonorrhoeae, intraperitoneal, once daily vs twice daily at half of the dose): once daily treatment (circles) is more effective than the twice daily treatment at half of the dose

C[C@@](O)(C(F)F)[C@H](NC(=O)c1ccc(C#CC#CC2CC2)cc1)C(=O)NO [Example 4, 4-(cyclopropylbuta-1,3-diyn-1-yl)-N-((2S,3S)-4,4-difluoro-3-hydroxy-1-(hydroxyamino)-3-methyl-1-oxobutan-2-yl)benzamide]
MIC N. gonorrhoeae 35/02 (N. gonorrhoeae 35/02): 0.063 | MIC N. gonorrhoeae F89 (N. gonorrhoeae F89 [1]): 0.008 | MIC N. gonorrhoeae FA19 (N. gonorrhoeae FA19): 0.016 | MIC N. gonorrhoeae HO41 (N. gonorrhoeae HO41 [2]): 0.026 | MIC50 (B. cepacia): 0.03 µg/mL (≈ 0.0797 µM) | MIC90 (B. cepacia): 0.13 µg/mL (≈ 0.345 µM) | MIC50 (E. coli): 0.02 µg/mL (≈ 0.0531 µM) | MIC90 (E. coli): 0.02 µg/mL (≈ 0.0531 µM) | MIC50 (K. pneumoniae): 0.06 µg/mL (≈ 0.159 µM) | MIC90 (K. pneumoniae): 0.25 µg/mL (≈ 0.664 µM) | MIC50 (P. aeruginosa): 0.16 µg/mL (≈ 0.425 µM) | MIC90 (P. aeruginosa): 0.32 µg/mL (≈ 0.85 µM) | clearance of E. coli infection (E. coli strain O18:H7:K1): cleared E. coli infections in the majority of mice

CO/N=C(\C(=O)N[C@@H]1C(=O)N2C(C(=O)O)=C(CSc3nc(=O)c(=O)[nH]n3C)CS[C@H]12)c1csc(N)n1 [ceftriaxone]
MIC of ceftriaxone, strain F89 (N. gonorrhoeae F89 [4]): 2 µg/mL | MIC of ceftriaxone, strain H041 (N. gonorrhoeae HO41 [5]): 2 to 4 µg/mL
